Values joined by “and” are separate entries in the source; they are usually repeats but may differ in a detail not shown here. Identical values can stand only once.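 These data come from cells grown in 96-well plates and exposed to compound for 48 hours at five concentrations. The concentration for 50% growth inhibition is given as GI50. TGI marks complete inhibition of growth.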
Key:
Test in all cases: NCI tumour cell line growth inhibition, 48 h
SK-MEL-5 melanoma = test system: SK-MEL-5 melanoma
HCT-15 colon = test system: HCT-15 colon
HCC-2998 colon = test system: HCC-2998 colon
SF-539 CNS = test system: SF-539 CNS
NCI-H522 lung = test system: NCI-H522 lung
COLO 205 colon = test system: COLO 205 colon
NCI-H226 lung = test system: NCI-H226 lung
HCT-116 colon = test system: HCT-116 colon
HOP-92 NSCLC = test system: HOP-92 NSCLC
SW-620 colon = test system: SW-620 colon

## O=C(N/N=C/c1ccccc1Cl)c1ccccc1Nc1ccnc(C(F)(F)F)c1
SK-MEL-5 melanoma
  GI50: 0.627 µM
  TGI: 2.71 µM
HCT-15 colon
  GI50: 0.43 µM
  TGI: 3.95 µM
HCC-2998 colon
  GI50: 1.74 µM
  TGI: 7.24 µM
SF-539 CNS
  GI50: 1.6 µM
  TGI: 3.7 µM
NCI-H522 lung
  GI50: 1.98 µM
  TGI: 6.74 µM
COLO 205 colon
  GI50: 1.55 µM
  TGI: 3.25 µM
NCI-H226 lung
  GI50: 0.811 µM
  TGI: 3.52 µM
HCT-116 colon
  GI50: 0.637 µM
  TGI: 3.27 µM
HOP-92 NSCLC
  GI50: 1.69 µM
  TGI: 6.17 µM
SW-620 colon
  GI50: 1.53 µM
  TGI: 14.5 µM

## COc1c(Cl)c2c(c(OC)c1OC)-c1ccc(SC)c(=O)cc1[C@@H](NC(=O)OCC(F)(F)F)CC2
SK-MEL-5 melanoma
  GI50: < 0.01 µM
  TGI: 0.0184 µM
HCT-15 colon
  GI50: < 0.01 µM
  TGI: > 61.3 µM
HCC-2998 colon
  GI50: < 0.01 µM
  TGI: 3.99 µM
SF-539 CNS
  GI50: < 0.01 µM
  TGI: < 0.01 µM
NCI-H522 lung
  GI50: < 0.01 µM
  TGI: 3.46 µM
COLO 205 colon
  GI50: < 0.01 µM
  TGI: 0.0314 µM
NCI-H226 lung
  GI50: < 0.01 µM
  TGI: 41.5 µM
HCT-116 colon
  GI50: < 0.01 µM
  TGI: 0.218 µM
HOP-92 NSCLC
  GI50: < 0.0179 µM
  TGI: 7.03 µM
SW-620 colon
  GI50: < 0.01 µM
  TGI: > 100 µM

## O=c1[nH]ccc2nc(N3CCC(O)CC3)nc(Nc3cccc(C(F)(F)F)c3)c12
SK-MEL-5 melanoma
  GI50: 1.23 µM
  TGI: 2.5 µM
HCT-15 colon
  GI50: 0.543 µM
  TGI: 31.6 µM
HCC-2998 colon
  GI50: 11.2 µM
  TGI: 38.4 µM
SF-539 CNS
  GI50: 5.19 µM
  TGI: 38.6 µM
NCI-H522 lung
  GI50: 2.36 µM
  TGI: 10.1 µM
COLO 205 colon
  GI50: 3.08 µM
  TGI: 14.5 µM
NCI-H226 lung
  GI50: 3.2 µM
  TGI: 17.7 µM
HCT-116 colon
  GI50: 0.88 µM
  TGI: 12.3 µM
HOP-92 NSCLC
  GI50: > 100 µM
  TGI: > 100 µM
SW-620 colon
  GI50: 1.91 µM
  TGI: 12.9 µM

## NC(=S)N/N=C(\C(=O)Nc1cccc([N+](=O)[O-])c1)c1nc2ccc([N+](=O)[O-])cc2[nH]c1=O
SK-MEL-5 melanoma
  TGI: > 100 µM
HCT-15 colon
  TGI: > 100 µM
HCC-2998 colon
  TGI: > 100 µM
SF-539 CNS
  TGI: > 100 µM
NCI-H522 lung
  TGI: 53 µM
COLO 205 colon
  TGI: > 100 µM
NCI-H226 lung
  TGI: > 100 µM
HCT-116 colon
  TGI: > 100 µM
HOP-92 NSCLC
  TGI: > 100 µM
SW-620 colon
  TGI: > 100 µM

## NC(=O)c1ccc2c(-c3ccnc(NCCCO)n3)c(-c3ccc(F)cc3)nn2c1
SK-MEL-5 melanoma
  GI50: > 25 µM
  TGI: > 25 µM
HCT-15 colon
  GI50: > 25 µM
  TGI: > 25 µM
HCC-2998 colon
  GI50: > 25 µM
  TGI: > 25 µM
SF-539 CNS
  GI50: > 25 µM
  TGI: > 25 µM
NCI-H522 lung
  GI50: > 25 µM
  TGI: > 25 µM
COLO 205 colon
  GI50: > 20.6 µM
  TGI: > 25 µM
NCI-H226 lung
  GI50: > 25 µM
  TGI: > 25 µM
HCT-116 colon
  GI50: > 25 µM
  TGI: > 25 µM
HOP-92 NSCLC
  GI50: > 25 µM
  TGI: > 25 µM
SW-620 colon
  GI50: > 25 µM
  TGI: > 25 µM

## CCCCCCCCCCC(O)C1CCC(C(O)CCC(O)C2CCC(CCCCCCC[C@H](O)CC3=C[C@@H](C)OC3=O)O2)O1 (stereo partly drawn)
SK-MEL-5 melanoma
  GI50: 5.97 µM
  TGI: > 64.3 µM
HCT-15 colon
  TGI: > 100 µM
HCC-2998 colon
  TGI: > 100 µM
SF-539 CNS
  TGI: > 100 µM
NCI-H522 lung
  TGI: > 100 µM
COLO 205 colon
  TGI: > 100 µM
NCI-H226 lung
  TGI: 40.4 µM
HCT-116 colon
  GI50: 3.48 µM
  TGI: > 53.4 µM
HOP-92 NSCLC
  TGI: > 100 µM
SW-620 colon
  GI50: 9.3 µM
  TGI: > 100 µM

## Cc1cc(I)cc(CN(C)CCN2CCCC2)c1O
SK-MEL-5 melanoma
  GI50: 20.2 µM
  TGI: 34.8 µM
HCT-15 colon
  GI50: 24.4 µM
  TGI: 73.7 µM
HCC-2998 colon
  GI50: 16 µM
  TGI: 35.9 µM
SF-539 CNS
  GI50: 21 µM
  TGI: 53.3 µM
NCI-H522 lung
  GI50: 19.9 µM
  TGI: 43.4 µM
COLO 205 colon
  GI50: 19 µM
  TGI: 40.2 µM
NCI-H226 lung
  GI50: 47.9 µM
  TGI: > 100 µM
HCT-116 colon
  GI50: 18.3 µM
  TGI: > 88.1 µM
HOP-92 NSCLC
  GI50: 16.8 µM
  TGI: 68.1 µM
SW-620 colon
  GI50: 23.2 µM
  TGI: 60 µM

## COc1ccc(C(=O)OC2C=COC(C)C2OC(=O)c2ccc(OC)cc2)cc1 (stereo not drawn)
SK-MEL-5 melanoma
  TGI: 32.1 µM
HCT-15 colon
  TGI: 33 µM
HCC-2998 colon
  TGI: > 100 µM
SF-539 CNS
  TGI: 33.6 µM
NCI-H522 lung
  TGI: 30.6 µM
COLO 205 colon
  TGI: > 100 µM
NCI-H226 lung
  TGI: > 100 µM
HCT-116 colon
  TGI: 21.8 µM
HOP-92 NSCLC
  TGI: 37.1 µM
SW-620 colon
  TGI: 35.1 µM

## COc1ccc(-c2nc3ncccn3c2/C=C/C(=O)c2cc(OC)c(OC)c(OC)c2)cc1
SK-MEL-5 melanoma
  GI50: 1.52 µM
  TGI: 2.87 µM
HCT-15 colon
  GI50: 1.38 µM
  TGI: 3.94 µM
HCC-2998 colon
  GI50: 1.58 µM
  TGI: 2.92 µM
SF-539 CNS
  GI50: 1.36 µM
  TGI: 2.95 µM
NCI-H522 lung
  GI50: 1.66 µM
  TGI: 3.89 µM
COLO 205 colon
  GI50: 1.7 µM
  TGI: 3.07 µM
NCI-H226 lung
  GI50: 2.28 µM
  TGI: 6.92 µM
HCT-116 colon
  GI50: 1.17 µM
  TGI: 2.39 µM
HOP-92 NSCLC
  GI50: 1.43 µM
  TGI: 12 µM
SW-620 colon
  GI50: 1.75 µM
  TGI: 3.94 µM

## COc1cc(C(=O)C/C(CCC(=O)Nc2ccc(Cl)cc2C)=N/NC(=O)C(N)=O)ccc1O
SK-MEL-5 melanoma
  TGI: > 100 µM
HCT-15 colon
  TGI: > 100 µM
HCC-2998 colon
  TGI: > 100 µM
SF-539 CNS
  TGI: > 100 µM
NCI-H522 lung
  TGI: > 100 µM
COLO 205 colon
  TGI: > 100 µM
NCI-H226 lung
  TGI: > 100 µM
HCT-116 colon
  TGI: > 100 µM
HOP-92 NSCLC
  TGI: > 100 µM
SW-620 colon
  TGI: > 100 µM

## CC1(C)CC(n2cnc(-c3ccc(F)cc3)c2-c2ccnc(N)n2)CC(C)(C)N1
SK-MEL-5 melanoma
  GI50: > 16.2 µM
  TGI: > 25 µM
HCT-15 colon
  GI50: 17.7 µM
  TGI: > 25 µM
HCC-2998 colon
  GI50: > 25 µM
  TGI: > 25 µM
SF-539 CNS
  GI50: > 25 µM
  TGI: > 25 µM
NCI-H522 lung
  GI50: 17.6 µM
  TGI: > 25 µM
COLO 205 colon
  GI50: 12.7 µM
  TGI: > 25 µM
NCI-H226 lung
  GI50: > 13.9 µM
  TGI: > 25 µM
HCT-116 colon
  GI50: 15.1 µM
  TGI: > 25 µM
HOP-92 NSCLC
  GI50: 7.19 µM
  TGI: > 25 µM
SW-620 colon
  GI50: 12.1 µM
  TGI: > 25 µM

## CC1=C2C[C@H]3[C@@H](CC=C4C[C@@H](O)CC[C@@]43C)[C@@H]2CC[C@]12O[C@@H]1C[C@H](C)CN[C@H]1[C@H]2C
SK-MEL-5 melanoma
  GI50: > 50 µM and 21.7 µM
  TGI: > 50 µM and 53.5 µM
HCT-15 colon
  GI50: 12.6 µM and 22.3 µM
  TGI: 49.4 µM and > 100 µM
HCC-2998 colon
  GI50: 16.9 µM and 21.6 µM
  TGI: 50 µM and 39.4 µM
SF-539 CNS
  GI50: 21.3 µM and 20 µM
  TGI: 50 µM and 37.8 µM
NCI-H522 lung
  GI50: 13.6 µM and 21.2 µM
  TGI: 44.7 µM and 39.7 µM
COLO 205 colon
  GI50: 13.6 µM and 4.28 µM
  TGI: 38.6 µM and 19.1 µM
NCI-H226 lung
  GI50: > 50 µM and 23.1 µM
  TGI: > 50 µM and 55.3 µM
HCT-116 colon
  GI50: 10.1 µM and 16.6 µM
  TGI: 24.7 µM and 31.8 µM
HOP-92 NSCLC
  GI50: 21.6 µM
  TGI: 57.9 µM
SW-620 colon
  GI50: > 50 µM and 32.9 µM
  TGI: > 100 µM

## O=C1c2cc([N+](=O)[O-])ccc2-c2cccc(F)c21
SK-MEL-5 melanoma
  TGI: > 100 µM
HCT-15 colon
  TGI: > 100 µM
HCC-2998 colon
  TGI: > 100 µM
SF-539 CNS
  TGI: > 100 µM
NCI-H522 lung
  TGI: > 100 µM
COLO 205 colon
  TGI: > 100 µM
NCI-H226 lung
  TGI: > 100 µM
HCT-116 colon
  TGI: > 100 µM
HOP-92 NSCLC
  TGI: > 100 µM
SW-620 colon
  TGI: > 100 µM
